pIC50: −log10 of the molar value. Values belong to the molecule of their own block, whether it stands above or below them.
What was measured:
[1] = target: T1, human metastin receptor hOT7T175 (Homo sapiens, UniProt Q969F8, L364H); test: binding inhibiting activity: 125I-metastin (40-54) binding to cell membrane fraction of h175 KB34 cells; conditions: room temperature 60 minutes, read-out: binding inhibiting activity, represented by the IC50 value
T1 construct: encoding the entire length of human metastin receptor hOT7T175; expressed in transfected cells; host or cells: CHO/dhFr- cells (ATCC #CRL-9096) stably transfected with pAKKO-hOT7T175; clone h175-16 was used as whole cells for FLIPR
T1 sequence (Q969F8 whole entry L364H): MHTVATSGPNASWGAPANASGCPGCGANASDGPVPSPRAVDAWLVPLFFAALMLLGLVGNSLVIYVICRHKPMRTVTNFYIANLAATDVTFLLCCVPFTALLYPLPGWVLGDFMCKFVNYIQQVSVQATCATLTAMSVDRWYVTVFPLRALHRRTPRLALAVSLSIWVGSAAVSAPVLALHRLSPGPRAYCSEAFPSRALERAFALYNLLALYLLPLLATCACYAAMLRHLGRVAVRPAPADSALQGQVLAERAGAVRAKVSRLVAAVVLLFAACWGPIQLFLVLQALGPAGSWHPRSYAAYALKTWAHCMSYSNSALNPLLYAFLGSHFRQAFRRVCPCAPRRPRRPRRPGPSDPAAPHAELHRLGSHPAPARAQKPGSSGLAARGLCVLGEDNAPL
Outline: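 Membranes came from CHO/dhfr− cells stably expressing human hOT7T175 (clone h175 KB34) and were diluted 250-fold for use. Binding of 125I-metastin (40-54) was run in 20 mM Tris, 2.5 mM magnesium acetate and 2 mM EGTA, pH 7.4, with protease inhibitors, either without BSA or with 1 mg/ml BSA.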

SMILES: Cl.N#Cc1c(-c2cccc(CNC(=O)CCN)c2)cc(-c2ccccc2O)nc1NC(=O)c1cccs1 [Example 44, N-[4-{3-[(β-alanylamino)methyl]phenyl}-3-cyano-6-(2-hydroxyphenyl)pyridin-2-yl]thiophene-2-carboxamide hydrochloride]
pIC50 [1]: ≥ 5.00
melting point: 173 to 180 °C

SMILES: Cl.N#Cc1c(-c2cccc(NC(=O)Cn3ccnc3)c2)cc(-c2ccc(Cl)cc2O)nc1NC(=O)c1ccco1 [Example 239, N-(6-(4-chloro-2-hydroxyphenyl)-3-cyano-4-{3-[(1H-imidazole-1-ylacetyl)amino]phenyl}pyridin-2-yl)-2-furamide hydrochloride]
pIC50 [1]: ≥ 5.00
melting point: 188 to 194 °C

SMILES: Cl.N#Cc1c(-c2cccc(NC(=O)CCN)c2)cc(-c2ccc(C(F)(F)F)cc2O)nc1NC(=O)c1cccs1 [Example 64, N-{4-[3-(β-alanylamino)phenyl]-3-cyano-6-[2-hydroxy-4-(trifluoromethyl)phenyl]pyridin-2-yl}thiophene-2-carboxamide hydrochloride]
pIC50 [1]: ≥ 5.00
melting point: 209 to 216 °C

SMILES: CC(C)(CN)CNC(=O)c1cccc(-c2cc(-c3ccc(F)cc3O)nc(NC(=O)c3cccs3)c2C#N)c1.Cl [Example 80, N-[4-(3-{[(3-amino-2,2-dimethylpropyl)amino]carbonyl}phenyl)-3-cyano-6-(4-fluoro-2-hydroxyphenyl)pyridin-2-yl]thiophene-2-carboxamide hydrochloride]
pIC50 [1]: ≥ 5.00
melting point: 265 to 268 °C

SMILES: COc1ccccc1C(=O)Nc1nc(-c2ccc(Cl)cc2O)cc(-c2cccc(C(=O)NCCCn3ccnc3)c2)c1C#N.Cl [Example 70, N-{6-(4-chloro-2-hydroxyphenyl)-3-cyano-4-[3-({[3-(1H-imidazole-1-yl)propyl]amino}carbonyl)phenyl]pyridin-2-yl}-2-methoxybenzamide hydrochloride]
pIC50 [1]: ≥ 5.00
melting point: 234 to 237 °C

SMILES: Cl.N#Cc1c(-c2cccc(CNC(=O)CN)c2)cc(-c2ccccc2O)nc1NC(=O)c1cccs1 [Example 43, N-[3-cyano-4-{3-[(glycylamino)methyl]phenyl}-6-(2-hydroxyphenyl)pyridin-2-yl]thiophene-2-carboxamide hydrochloride]
pIC50 [1]: ≥ 5.00
melting point: 181 to 186 °C

SMILES: COc1ccccc1C(=O)Nc1nc(-c2ccc(F)cc2O)cc(-c2cccc(C(=O)NCCCn3ccnc3)c2)c1C#N.Cl [Example 245, N-{3-cyano-6-(4-fluoro-2-hydroxyphenyl)-4-[3-({[3-(1H-imidazol-1-yl)propyl]amino}carbonyl)phenyl]pyridin-2-yl}-2-methoxybenzamide hydrochloride]
pIC50 [1]: ≥ 5.00
melting point: 234 to 235 °C

SMILES: Cl.N#Cc1c(-c2cccc(C(=O)NC3CCNC3)c2)cc(-c2ccc(F)cc2O)nc1NC(=O)c1cccs1 (stereo not shown) [Example 79, N-(3-cyano-6-(4-fluoro-2-hydroxyphenyl)-4-{3-[(pyrrolidine-3-ylamino)carbonyl]phenyl}pyridin-2-yl)thiophene-2-carboxamide hydrochloride]
pIC50 [1]: ≥ 5.00
melting point: 240 to 241 °C

SMILES: Cl.N#Cc1c(-c2cccc(NC(=O)C(N)c3ccccc3)c2)cc(-c2ccc(F)cc2O)nc1NC(=O)c1ccco1 (stereo not shown) [Example 258, N-[4-(3-{[amino(phenyl)acetyl]amino}phenyl)-3-cyano-6-(4-fluoro-2-hydroxyphenyl)pyridin-2-yl]-2-furamide hydrochloride]
pIC50 [1]: ≥ 5.00
melting point: 224 to 225 °C

SMILES: Cc1ccc(C(=O)Nc2nc(-c3ccc(Cl)cc3O)cc(-c3cccc(NC(=O)CC(C)N)c3)c2C#N)o1.Cl (stereo not shown) [Example 271, N-[4-{3-[(3-aminobutanoyl)amino]phenyl}-6-(4-chloro-2-hydroxyphenyl)-3-cyanopyridin-2-yl]-5-methyl-2-furamide hydrochloride]
pIC50 [1]: ≥ 5.00
melting point: 206 to 212 °C

SMILES: CCCN(CCC)C(C)CC(=O)Nc1cccc(-c2cc(-c3ccc(F)cc3O)nc(NC(=O)c3ccco3)c2C#N)c1.Cl (stereo not shown) [Example 318, N-[3-cyano-4-(3-{[3-(dipropylamino)butanoyl]amino}phenyl)-6-(4-fluoro-2-hydroxyphenyl)pyridin-2-yl]-2-furamide hydrochloride]
pIC50 [1]: ≥ 5.00
melting point: 198 to 200 °C

SMILES: Cl.N#Cc1c(-c2cccc(NC(=O)CCN)c2)cc(-c2ccc(Cl)cc2O)nc1NC(=O)c1ccco1 [Example 63, N-{4-[3-(β-alanylamino)phenyl]-6-(4-chloro-2-hydroxyphenyl)-3-cyanopyridin-2-yl}-2-furamide hydrochloride]
pIC50 [1]: ≥ 5.00
melting point: 206 to 212 °C

SMILES: CN(C)Cc1cccc(-c2cc(-c3ccccc3O)nc(NC(=O)c3cccs3)c2C#N)c1 [Example 2, N-[3-cyano-4-{3-[(dimethylamino)methyl]phenyl}-6-(2-hydroxyphenyl)pyridin-2-yl]thiophene-2-carboxamide]
pIC50 [1]: ≥ 5.00
melting point: 225 to 226 °C

SMILES: CN1CCN(c2cccc(-c3cc(-c4ccc(F)cc4O)nc(NC(=O)c4ccco4)c3C#N)c2)CC1.Cl [Example 327, N-{3-cyano-6-(4-fluoro-2-hydroxyphenyl)-4-[3-(4-methylpiperazin-1-yl)phenyl]pyridin-2-yl}-2-furamide hydrochloride]
pIC50 [1]: ≥ 5.00
melting point: 254 to 259 °C

Other lines, results leading:

pIC50 [1]: ≥ 5.00
melting point: 208 to 213 °C
SMILES: Cl.N#Cc1c(-c2cccc(NC(=O)[C@H]3CCCN3)c2)cc(-c2ccc(Cl)cc2O)nc1NC(=O)c1ccco1 [Example 296, N-{3-[6-(4-chloro-2-hydroxyphenyl)-3-cyano-2-(2-furoylamino)pyridin-4-yl]phenyl}-D-prolinamide hydrochloride]

pIC50 [1]: ≥ 5.00
melting point: 233 to 234 °C
SMILES: CC(CC(=O)Nc1cccc(-c2cc(-c3ccc(F)cc3O)nc(NC(=O)c3ccco3)c2C#N)c1)N(C)C.Cl (stereo not shown) [Example 338, N-[3-cyano-4-(3-{[3-(dimethylamino)butanoyl]amino}phenyl)-6-(4-fluoro-2-hydroxyphenyl)pyridin-2-yl]-2-furamide hydrochloride]

pIC50 [1]: ≥ 5.00
melting point: 216 to 220 °C
SMILES: Cl.N#Cc1c(-c2cccc(NC(=O)[C@H]3CCCN3)c2)cc(-c2ccc(F)cc2O)nc1NC(=O)c1ccco1 [Example 291, N-{3-[3-cyano-6-(4-fluoro-2-hydroxyphenyl)-2-(2-furoylamino)pyridin-4-yl]phenyl}-D-prolinamide hydrochloride]

pIC50 [1]: ≥ 5.00
melting point: 190 to 196 °C
SMILES: Cl.N#Cc1c(-c2cccc(NC(=O)C3(N)CC3)c2)cc(-c2ccc(Cl)cc2O)nc1NC(=O)c1ccco1 [Example 69, N-[4-(3-{[(1-aminocyclopropyl)carbonyl]amino}phenyl)-6-(4-chloro-2-hydroxyphenyl)-3-cyanopyridin-2-yl]-2-furamide hydrochloride]

pIC50 [1]: ≥ 5.00
melting point: 214 to 217 °C
SMILES: CCCC(N)CC(=O)Nc1cccc(-c2cc(-c3ccc(F)cc3O)nc(NC(=O)c3ccco3)c2C#N)c1.Cl (stereo not shown) [Example 265, N-[4-{3-[(3-aminohexanoyl)amino]phenyl}-3-cyano-6-(4-fluoro-2-hydroxyphenyl)pyridin-2-yl]-2-furamide hydrochloride]

pIC50 [1]: ≥ 5.00
melting point: 203 to 205 °C
SMILES: Cl.N#Cc1c(-c2cccc(NC(=O)CN3CCCC3)c2)cc(-c2ccc(F)cc2O)nc1NC(=O)c1ccco1 [Example 259, N-(3-cyano-6-(4-fluoro-2-hydroxyphenyl)-4-{3-[(pyrrolidin-1-ylacetyl)amino]phenyl}pyridin-2-yl)-2-furamide hydrochloride]

pIC50 [1]: ≥ 5.00
melting point: 224 to 225 °C
SMILES: Cl.N#Cc1c(-c2cccc(NC(=O)[C@@H]3CCCC[C@@H]3N)c2)cc(-c2ccc(F)cc2O)nc1NC(=O)c1ccco1 (racemic) [Example 267, N-{4-[3-({[(1SR,2RS)-2-aminocyclohexyl]carbonyl}amino)phenyl]-3-cyano-6-(4-fluoro-2-hydroxyphenyl)pyridin-2-yl}-2-furamide hydrochloride]

pIC50 [1]: ≥ 5.00
melting point: 210 to 216 °C
SMILES: C[C@@H](N)C(=O)Nc1cccc(-c2cc(-c3ccc(Cl)cc3O)nc(NC(=O)c3ccco3)c2C#N)c1.Cl [Example 237, N-[4-[3-(alanylamino)phenyl]-6-(4-chloro-2-hydroxyphenyl)-3-cyanopyridin-2-yl]-2-furamide hydrochloride]

pIC50 [1]: ≥ 5.00
melting point: 224 to 230 °C
SMILES: COC[C@H](N)C(=O)Nc1cccc(-c2cc(-c3ccc(F)cc3O)nc(NC(=O)c3ccco3)c2C#N)c1.Cl [Example 301, N-(3-cyano-6-(4-fluoro-2-hydroxyphenyl)-4-{3-[(O-methyl-L-seryl)amino]phenyl}pyridin-2-yl)-2-furamide hydrochloride]

pIC50 [1]: ≥ 5.00
melting point: 207 to 210 °C
SMILES: C[C@H](N)C(=O)Nc1cccc(-c2cc(-c3ccc(Cl)cc3O)nc(NC(=O)c3ccco3)c2C#N)c1.Cl [Example 240, N-[4-[3-(L-alanylamino)phenyl]-6-(4-chloro-2-hydroxyphenyl)-3-cyanopyridin-2-yl]-2-furamide hydrochloride]

pIC50 [1]: ≥ 5.00
melting point: 214 to 217 °C
SMILES: CC(C)C(N)CC(=O)Nc1cccc(-c2cc(-c3ccc(F)cc3O)nc(NC(=O)c3ccco3)c2C#N)c1.Cl (stereo not shown) [Example 266, N-[4-{3-[(3-amino-4-methylpentanoyl)amino]phenyl}-3-cyano-6-(4-fluoro-2-hydroxyphenyl)pyridin-2-yl]-2-furamide hydrochloride]

pIC50 [1]: ≥ 5.00
melting point: 182 to 187 °C
SMILES: CCN1CCC[C@H]1CC(=O)Nc1cccc(-c2cc(-c3ccc(F)cc3O)nc(NC(=O)c3ccco3)c2C#N)c1.Cl [Example 336, N-[3-cyano-4-[3-({[(2S)-1-ethylpyrrolidin-2-yl]acetyl}amino)phenyl]-6-(4-fluoro-2-hydroxyphenyl)pyridin-2-yl]-2-furamide hydrochloride]

— patent US20090156646A1, “PYRIDYLPHENOL COMPOUND AND USE THEREOF” (TAKEDA PHARMACEUTICAL COMPANY LIMITED, priority 2005, published 2009)
